One experiment has as its target Ab4 (mAb35 antibody). The experiment in a line: SPR binding to immobilized Ab4. The conditions noted are these: mean ± SD (n = 3), read-out: Kd of Ab4 binding (apparent Kd for DCAF). For orientation: SPR reads the build-up and loss of mass on a sensor chip optically.
Experiment [1] concerns the target Ab2 (monoclonal antibody raised against pep2). Briefly: SPR binding to immobilized Ab2. The following applies: BIAcore T200, Ab2 immobilized on CM5 chip, PBS with 0.005% surfactant P20, mean ± SD (n = 3), read-out: Kd of Ab2 binding (apparent Kd for DCAF). Also noted: species or system mouse. How it is done: (§1) Surface plasmon resonance (SPR) experiments were performed using a BIAcore T200 instrument (GE healthcare) equipped with a CM5 sensor chip. Briefly, Ab1, Ab2 or Ab3 were directly immobilized onto a CM5 sensor chip using an EDC/NHS amine coupling kit. A blank channel was used as the negative control. For SPR measurements, all peptides were directly dissolved in running buffer (PBS with 0.005% surfactant P20). The analytes were injected and disassociated with immobilized IgG at a flow rate of 30 μl min^–1. After each binding and dissociation cycle, the surface of a sensor chip was regenerated using 10 mM glycine-HCl buffer (pH 2.0). The sensorgrams were corrected by subtraction of the signal from the negative control flow path and curve-fitted to calculate the reaction rate and constants using Evaluation 1.0 software.

For the next experiment, the target named is Ab1 (4G2 antibody). Briefly: SPR binding to immobilized Ab1. On the set-up: species or system mouse. The conditions noted are these: BIAcore T200, Ab1 immobilized on CM5 chip, PBS with 0.005% surfactant P20, 30 μl/min, mean ± SD (n = 3), read-out: Kd of Ab1 binding (apparent Kd for DCAF). On the procedure: as §1
The next experiment concerns Ab2. The experiment in a line: ELISA competition assay of Ab2 binding to GST-fused pep2. In kind it is biochemical, mouse. The following applies: sandwich ELISA, GST-fused pep2, Ab2 10 nM, OD450. On the procedure: A standard sandwich ELISA assay was used for competition experiment. Briefly, 96-well microtiter plates were coated overnight with anti-GST antibody (10 nM) at 4 °C and blocked with 200 μL of 1% BSA in PBS at room temperature for 1 h. Then the artificial antigen (0.5 nM), pep2 coupled with the GST protein, was added to the wells and incubated for 2 h at RT. The plates were washed with PBS/0.05% Tween 20, and Ab2 (10 nM) or Ab2 (10 nM) plus other ligands, antigen, Fc-III or DCAF2 at series concentrations, were added and incubated for 2 h at RT. […] For a C1q binding assay, rat C1q ELISA kit was used following the protocol of the manufacturer. Briefly, incubated 25 ng mL^–1 C1q and series concentrations of Ab4 or DCAF4 with a pre-coated C1q capture antibody for 2 h at RT. Then HRP linked detection antibody was added for 1 h at RT and the TMB substrate was used to measure the concentration of C1q at OD450.
On the technique in general: ELISA stands for enzyme-linked immunosorbent assay.

In experiment [2] the target is Ab3 (monoclonal antibody raised against pep3). The experiment in a line: SPR binding to immobilized Ab3. On the set-up: species or system mouse. The conditions noted are these: BIAcore T200, Ab3 immobilized on CM5 chip, PBS with 0.005% surfactant P20, mean ± SD (n = 3), read-out: Kd of Ab3 binding (apparent Kd for DCAF). On the procedure: as §1
Experiment [3] has as its target 4G2 antibody (Ab1), ADE-inducible mouse monoclonal IgG (mouse). Briefly: SPR; BIAcore T200; antibody (IgG) immobilised on a CM5 chip by EDC/NHS amine coupling; peptides as analytes in PBS with 0.005% surfactant P20, 30 ul/min; regeneration 10 mM glycine-HCl pH 2.0; apparent Kd for DCAF, bivalent fit gives Kd1 and Kd2.
Experiment [4] addresses mAb35 (Ab4), commercial antibody that blocks the acetylcholine receptor. Briefly: SPR.

Take `CC(C)C[C@@H]1NC(=O)[C@H](Cc2c[nH]cn2)NC(=O)[C@H](Cc2c[nH]c3ccccc23)NC(=O)[C@H](C)NC(=O)[C@@H]2CSSC[C@H](NC(=O)[C@H](Cc3c[nH]c4ccccc34)NC(=O)[C@H](C(C)C)NC(=O)[C@H](CC(C)C)NC(=O)[C@H](CCC(=O)O)NC(=O)CNC1=O)C(=O)N[C@@H]([C@@H](C)O)C(=O)N[C@H](C(=O)O)CSSC[C@H](N)C(=O)N[C@@H](CC(=O)O)C(=O)N2` [Fc-III-4C]: the Kd at Ab4 (mAb35 antibody) turned out to be 13.99 ± 0.03 nM.
In the case of `CC(C)C[C@@H]1NC(=O)[C@H](Cc2c[nH]cn2)NC(=O)[C@H](Cc2c[nH]c3ccccc23)NC(=O)[C@H](C)NC(=O)[C@@H](NC(=O)[C@@H](N)CC(=O)O)CSSC[C@@H](C(=O)N[C@H](C(=O)O)[C@@H](C)O)NC(=O)[C@H](Cc2c[nH]c3ccccc23)NC(=O)[C@H](C(C)C)NC(=O)[C@H](CC(C)C)NC(=O)[C@H](CCC(=O)O)NC(=O)CNC1=O` [Fc-III], the Kd is 169 ± 18 nM in experiment [1], 239 ± 2 nM at Ab1 (4G2 antibody) and 134 ± 6 nM in experiment [2]. In addition, in the experiment with Ab2, the “inhibition of antigen–antibody (pep2–Ab2) binding” value is reported as “did not inhibit”.
With Fc-III peptide, in experiment [3], the Kd is 239 nM.
For Fc-III-4C peptide, the Kd in experiment [4] came to 14 nM.

The record behind these values is PMC6429600, “Development of a dual-functional conjugate of antigenic peptide and Fc-III mimetics (DCAF) for targeted antibody blocking” (Chemical Science, 2019).
